The target in assay [1] is T1, human pancreatic cholesterol esterase (Homo sapiens, UniProt P19835).
T1 construct: 30 gm of human pancreas received at autopsy were placed in 10 mM phosphate; from tissue; host or cells: human pancreas (autopsy)
T1 sequence (P19835 21-753): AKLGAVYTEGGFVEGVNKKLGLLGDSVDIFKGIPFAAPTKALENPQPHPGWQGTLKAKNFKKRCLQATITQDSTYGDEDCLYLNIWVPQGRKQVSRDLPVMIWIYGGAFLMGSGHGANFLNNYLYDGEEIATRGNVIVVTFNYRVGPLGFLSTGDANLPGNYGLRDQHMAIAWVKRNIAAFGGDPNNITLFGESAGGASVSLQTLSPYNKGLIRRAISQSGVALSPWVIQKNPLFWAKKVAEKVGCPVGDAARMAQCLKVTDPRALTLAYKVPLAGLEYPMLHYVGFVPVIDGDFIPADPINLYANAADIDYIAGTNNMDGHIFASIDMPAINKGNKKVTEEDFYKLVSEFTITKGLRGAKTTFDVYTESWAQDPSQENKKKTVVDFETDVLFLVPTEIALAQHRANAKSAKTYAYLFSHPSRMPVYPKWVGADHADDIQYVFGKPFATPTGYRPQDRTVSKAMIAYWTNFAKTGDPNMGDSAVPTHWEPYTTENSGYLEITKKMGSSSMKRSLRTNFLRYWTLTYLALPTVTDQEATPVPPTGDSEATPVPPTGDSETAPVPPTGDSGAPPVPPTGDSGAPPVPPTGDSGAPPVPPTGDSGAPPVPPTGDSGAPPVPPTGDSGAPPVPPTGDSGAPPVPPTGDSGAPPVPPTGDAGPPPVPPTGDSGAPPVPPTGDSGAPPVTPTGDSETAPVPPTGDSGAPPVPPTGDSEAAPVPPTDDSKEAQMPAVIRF
The experiment in a line: Elution of human pancreatic cholesterol esterase bound to heparin immobilized on Sepharose. Format: binding. Particulars: 5 mg/ml chondroitin sulfate.

Assay [2] has as its target T1, human pancreatic cholesterol esterase. The assay is described as follows: Binding of 125I-cholesterol esterase to small intestine vesicles and its displacement. The protocol: (§1) Vesicles contained 1.0 mg protein/ml, 30 ug total cholesterol/mg protein and 50 ug endogenous heparin/mg protein. ^125 I-cholesterol esterase (100K or 67K form) was added (0 to 400 pmol; 2,000 dpm/pmol) to 100 ug of protein of small intestine vesicles in 10 mM Tris-Cl, pH 7.2 for 15 min. at 37°. The concentration of offered ^125 I-cholesterol esterase varied between 10 nM and 1 uM. Experiments were performed utilizing 1% blotto to decrease nonspecific protein binding to the vesicles. After the 15 minute incubation at 37°, the reaction was quenched and the assay mixtures were filtered through wells of a Millipore system containing 0.2 micron pore filters presoaked in buffer. The filtrate was-collected to assess free (unbound) enzyme, and the filters were then immediately washed with 15 ml of cold buffer and counted for ^125 I. Total binding was defined as ^125 I-dpm bound to filter paper minus ^125 I-dpm detected in the same reaction without vesicles (background). Nonspecific binding (radioactivity bound to the vesicles in the presence of excess cold ligand) was quantitated as the amount of ^125 I-cholesterol esterase binding in the presence of a 1000-fold molar excess of unlabeled cholesterol esterase as described above. Specific binding is defined as the difference between total bound dpm and nonspecific-bound dpm (converted to moles bound by dividing by the SRA).

Assay [3] concerns human pancreatic cholesterol esterase. Described as above. As to the method: as §1
For assay [4], the target named is T2, human pancreatic cholesterol esterase (100 kDa) (Homo sapiens, UniProt P19835).
T2 construct: from tissue; host or cells: human pancreas (autopsy)
T2 sequence (P19835 21-753): T1 sequence (P19835 21-753)
The assay is described as follows: Triolein hydrolysis by human pancreatic cholesterol esterase (100 kDa). Format: biochemical. The source says: (§2) Human pancreatic cholesterol esterase (100 kDa) and human pancreatic triglyceride lipase (52 kDa) were purified to homogeneity (Examples 1 and 3), and their abilities to cleave triglycerides and cholesteryl esters were compared. […] Virtually the same results were found with cholesteryl esters; the 100 kDa enzyme cleaved cholesterol oleate at a rate at least 490-fold greater than that found for the 52 kDa triglyceride lipase.

In assay [5] the target is T3, human pancreatic triglyceride lipase (52 kDa) (Homo sapiens, UniProt P16233).
T3 sequence (P16233 17-465): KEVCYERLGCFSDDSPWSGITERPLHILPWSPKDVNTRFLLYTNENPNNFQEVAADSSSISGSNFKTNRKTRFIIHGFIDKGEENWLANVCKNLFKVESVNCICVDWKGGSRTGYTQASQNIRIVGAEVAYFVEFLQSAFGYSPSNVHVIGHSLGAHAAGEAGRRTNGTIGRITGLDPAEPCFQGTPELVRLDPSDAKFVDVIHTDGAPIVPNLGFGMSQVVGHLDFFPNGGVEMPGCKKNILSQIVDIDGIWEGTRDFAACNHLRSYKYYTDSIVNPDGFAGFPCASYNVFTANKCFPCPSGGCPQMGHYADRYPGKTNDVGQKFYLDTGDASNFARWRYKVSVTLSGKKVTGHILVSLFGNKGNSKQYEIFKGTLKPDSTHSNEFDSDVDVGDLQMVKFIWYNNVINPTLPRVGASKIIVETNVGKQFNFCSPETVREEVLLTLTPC
The experiment in a line: Triolein hydrolysis by human pancreatic triglyceride lipase (52 kDa). Format: biochemical.
Source text: as §2

Assay [6] has as its system small intestine membrane vesicles (membrane-bound heparin). The experiment in a line: Binding of 125I-labeled bovine pancreatic enzymes to small intestine membrane vesicles. Particulars: 125I-labeled bovine pancreatic enzyme, 1% Blotto. The protocol: as §1, with “Exogenous heparin inhibits the interaction and binding of pancreatic choleserol esterase to small intestine vesicles prepared from proximal small intestine segments homogenized in 10 mM Tris-Cl, pH 7.2, and centrifuged at 48,000 X g for 45 minutes. Vesicles” for “Vesicles”, “After the 15 minute incubation at 37°, the reaction was quenched and the assay mixtures were filtered through wells of a Millipore system containing 0.2 micron pore filters presoaked in buffer.” left out, “Specific binding is defined as the difference between total bound dpm and nonspecific-bound dpm (converted to moles bound by dividing by the SRA).” left out

The test system of the next assay is CaCo cells. The experiment in a line: Cellular uptake of [14C]oleate from [14C]triolein. It counts as cell-based. Particulars: at eight hours. The protocol:
Confluent monolayers of 2×10^6 CaCo cells (Example 5b) were incubated with 2 mM taurocholate and with [^14 C]triolein (5 uM) embedded in phosphatidylcholine vesicles. In the absence of triglyceride lipase, cellular uptake of [^14 C] oleate was linear and at eight hours was 204 pmol. In the presence of human triglyceride lipase (25 nM) and colipase (400 nM), uptake was brisk, reaching 706 pmol at eight hours. Moreover, enzyme-mediated uptake was also dependent on the presence of colipase in the medium, since uptake was only 229 pmol at eight hours in its absence. Heparin (400 uM) added to medium containing triglyceride lipase and colipase reduced uptake from 706 pmol to 329 pmol at eight hours. Thus, heparin decreased cellular uptake of oleate (oleic acid) from cleaved triglyceride by 75%.

Assay [7] can be described thus: Cholesterol ester synthesis versus hydrolysis by the 52K form. Format: biochemical, human. As to the method: Human pancreatic cholesterol esterase (52K form) can be isolated as follows. Cytosol prepared as above from 30 g pancreas is dialyzed versus 10 mM Tris-Cl, 50 mM benzamidine, pH 8.2 and then chromatographed over DEAE cellulose (2.6×25 cm). Unlike the higher molecular weight forms of cholesterol esterase which bind under these conditions, the 52K species rapidly passes through DEAE cellulose at pH 8.2, with a 40-fold purification and 80% yield. Subsequent chromatography over hydroxylapatite and heparin-Sepharose yields a homogeneous protein (SDS-PAGE, M.W.=52K) with enzymatic activity expressed principally in the synthetic direction for cholesterol esters (rate of synthesis/rate of hydrolysis=10/1). This species also cross-reacts in western blotting to anti-cholesterol esterase antibodies.

For chondroitin sulfate, the “elution of bound enzyme from heparin-Sepharose” value in assay [1] was “completely ineffective”. For the same molecule, the “displacement of cholesterol esterase from vesicles” value in assay [2] (10 mg/ml chondroitin sulfate) is “ineffective”. Besides, the “decrease of specific binding of 125I-cholesterol esterase to vesicles” value in assay [3] (0.5 to 100-fold molar excesses) is given as “less than 10%”.
Turning to `[Cl-].[Na+]` [NaCl, reference compound], in assay [4] (0.15 M NaCl), the “effect on triolein hydrolysis by the 100 kDa esterase” value is “unaffected”. The “inhibition of triolein hydrolysis by the 52 kDa enzyme” value in assay [5] (0.15 M NaCl) amounted to 68%. For the same molecule, the “displacement of cholesterol esterase from vesicles” value in assay [2] (150 mM NaCl) was “ineffective”. Besides, the “effect on specific binding of 125I-cholesterol esterase to vesicles” value in assay [3] (isotonic saline) is reported as “no effect”.
Regarding “phospholipase A2: bovine pancreatic phospholipase A2 radiolabeled with Na125I”, the “binding to small intestine membrane vesicles / membrane-bound heparin” value in assay [6] is “do not bind”.

B1: colipase: cofactor protein added to triglyceride lipase (protein, UniProt P04118 23-112, looked up)
Colipase: GIIINLENGELCMNSAQCKSNCCQHSSALGLARCTSMASENSECSVKTLYGIYYKCPCERGLTCEGDKTIVGSITNTNFGICHDAGRSKQ
With B1, in assay [4] (50-fold molar excess of colipase), the “effect on triolein hydrolysis by the 100 kDa esterase” value is recorded as “unaffected”. The “stimulation of triolein hydrolysis by the 52 kDa enzyme” value in assay [5] (10-fold excess of colipase) amounted to 375%.

B2: Human pancreatic cholesterol esterase (52K form): 52K protein isolated as in Example 3; called triglyceride lipase in Example 10 (protein, UniProt P16233 17-465, looked up)
Pancreatic triacylglycerol …: T3 sequence (P16233 17-465)
B2: in assay [5] (homogeneous 52 kDa enzyme), the “rate of triolein hydrolysis” value is recorded as 27 nmol/hr/g pancreas. For the same molecule, the “cellular uptake of [14C]oleate” value was determined as 706 pmol in the assay with CaCo cells (human triglyceride lipase 25 nM and colipase 400 nM); 229 pmol with CaCo cells (triglyceride lipase in the absence of colipase). Also, the “rate of synthesis/rate of hydrolysis of cholesterol esters” value in assay [7] was 10/1.

The record behind these values is US5492822A, “Method for recovering purified 100,000 dalton molecular weight fraction of human pancreatic cholesterol esterase” (Lange, III; Louis G., priority 1995, dated 1996).
